{"source": "patent US10197557B2", "about": "“Small molecules for endothelial cell activation” (The Regents of the University of California, priority 2011, dated 2019)", "test_system": "Primary human umbilical endothelial cells (EC)", "experiment": "Biological platform: EC-monocyte co-culture, flow cytometry profiling (CD40, CD209, CD163) across 10 parameters", "assay_type": "cell-based", "conditions": "Prestwick library of FDA approved compounds (FIG. 1B)", "experimental": "The biological platform or assay described herein can be embodied in different ways (see, e.g., FIGS. 1 and 9). An embodiment of the biological platform of invention is provided below: • 1. Primary human umbilical endothelial cells (EC) are adhered in 96 or 384-well plates at confluency for 2 hours. • 2. Control stimuli (or compounds of interest) are added to EC for 5 hours. • 3. Compounds are removed, EC washed, and primary human peripheral blood monocytes are added. • 4. After 24 hours, 25 μl of supernatant is removed for MIP1α and MIP1β analysis. • 5. After 42-48 total hours of co-culture, cells are harvested for flow cytometry. • 6. Cells are labeled with: CD40, CD209, and CD163. • a. Parameter 1: Gate on EC/monocytes by using FSC vs SSC on whole co-culture population • b. Parameter 2: Use SSC vs. CD40 to separate monocytes from EC. Note: loss of EC population reflects compound toxicity. • c. Parameter 3: Gate on CD40+ monocytes • d. Parameter 4: Determine CD40 MFI on CD40+ macrophages • e. Parameter 5: Determine CD209 MFI on CD40+ macrophages • f. Parameter 6: Determine CD163 MFI on CD40+ macrophages • g. Parameter 7: Subtract vehicle control MFIs from each sample of interest. In the example below (FIGS. 2A and 2B), EC stimulation with IFNγ may promote EC-triggered MΦ with CD40 MFI=40, CD209 MFI=60, CD163=10. DMSO treated EC promote MΦ with CD40=20, CD209 MFI=30, and CD163=100. […]"}
{"smiles": "CN(C)C(=N)N=C(N)N", "note": "[metformin]", "values": [{"measurement": "position in the profile of pro-inflammatory (enhanced) and anti-inflammatory (dampening) compounds", "value": "dampening subset"}]}
